Experiments:
[1] = test system: V. harveyi strain MM32 (luxN− luxS−); experiment: V. harveyi autoinducer bioassay (light emission); type: cell-based; conditions: for activity compared with enzymatically prepared DPD in the V. harveyi bioassay: equal concentration, 0.5 M potassium phosphate buffer, pH 7.3
Experimental: (§1) V. harveyi strain MM32 (luxN^− luxS^−) was grown overnight and subsequently diluted 5.000-fold in AB growth medium. This bioassay was performed as developed by the method of Schauder et. al. (2001). To 90 μL of diluted cells ,10 μL of various compounds were added, and the resulting cultures were further incubated in a 96-well microtiter dish at 30° C. for approximately 6 h. The concentration of crude DPD was calculated by measuring the amount of homocysteine released in an Ellman's test. Light emission was measured using a Wallac model 1450 microbeta Plus scintillation counter.
A. Comparative bioactivity of enzymatically-produced DPD, synthetic DPD and synthetic ent-DPD. Each of these three compounds and a blank were assessed in the above bioassay at equal concentrations. The bio assays were conducted with a dilution of 0.53 mM enzymatically-produced DPD, a dilution of 5.0 mM synthetic DPD or a dilution of 5.0 mM ent-DPD.

[2] = test system: V. harveyi strain MM32 (luxN− luxS−); experiment: Effects of low pH on DPD bioactivity (V. harveyi bioassay after acid treatment); type: cell-based
Experimental: as §1
B. Effects of low pH on enzmmatically-produced DPD bioactivity. Enzymatically produced DPD (0.53 mM stock concentration) was mixed with sulfuric or hydrochloric acid at a ratio of 1 μL H2SO4 or 5 μL HCl to 250 μL DPD, resulting in solutions with a pH of 1.5 (with H2SO4) or 2 (with HCl). At times indicated, 1 M Tris pH 8.5 was added to restore the pH to neutral and bioactivity was determined. […] Similar results were obtained after exposure to H2SO4 (not shown).
C. Effects of low pH on synthetic DPD bioactivity. Synthetically-produced DPD (100 mM stock concentration) was mixed with H2SO4 at a ratio of 1 μL H2SO4 to 250 μL DPD, resulting in solutions with a pH of 1.3. After 16 h, 1 M Tris pH 8.5 was added at a ratio of 5 μL buffer to 20 uL DPD solution to restore the pH to 7.5.

[3] = Stability of DPD in aqueous solution monitored by 1H NMR; type: physicochemical
Experimental: Synthetically-produced DPD was stable under acidic conditions; a 30 mM sample of the molecule was monitored for decomposition via ^1H NMR for 5 h at 20° C. and pH 1.5. […] The purity of the synthetic DPD was further established by reaction with o-phenylenediamine to produce (S)-1-(3-methylquioxalin-2-yl)-ethane-1,2-diol in >98% purity.
To a suspension of 11 (9.6 mg, […]) in D2O) (1.5 mL) was added conc. D2SO4 (1.5 μL, final pD1.5). The reaction was allowed to continue for 5 h and was monitored by ^1H NMR. A ^1H-^1H DQCOSY spectrum was recorded at the 5-h time point to help establish the identity of each ^1H signal. […] The extra signals in the region form 1.35-1.45 ppm and 3.4-4.6 ppm are most likely due to a small amount of 1 that is not hydrated at C3. This hypothesis is supported by the complete disappearance of these peaks upon addition of 1,2-phenylenediamine (see Example 13)

[4] = 11B NMR DPD-borate binding study; type: physicochemical; conditions: 100 μM DPD in 400 μM B(OH)3, pH 7.5
Experimental: To explore the binding of DPD with borate under conditions that more closely resemble those in the natural habitat of V. harveyi and to correlate this study with previous work using DPD produced in vivo and released from the V. harveyi receptor protein, LuxP, the ^11B NMR spectrum of a 100 μM DPD solution in 400 μM B(OH)3 (Dickson et al. 1990) at pH 7.5 was recorded. […] Based on the ratio of integrals for the B(OH)3 peak and the DPD:borate peak, the concentration of DPD:borate complex was calculated to be ca 10 μM. consistent with ca 10% DPD bound at this dilution. We were unable to observe conclusively the presence of complexes with a 2:1 DPD:borate stoichiometry due to sensitivity limitations of the ^11B NMR experiment, although a peak with a S/N of 2 was recorded at δ 9.8 ppm.
To explore further the ability of DPD to complexborate at more physiologically relevant concentrations, a mixture of 10 μL of 40 mM B(OH)3, […] of 10 mM DPD, 100 μL of 1 M potassium phosphate buffer (pH 7), 200 μL of sat. NaHCO3 and 680 μL of D2O was produced to generate a 100 μM DPD solution in 400 μM B(OH)3, at pH 7.5. This solution was then analyzed by ^11B NMR to determine binding, as discussed in the Detailed Description of the Invention.

[5] = test system: cell growth; experiment: Cell growth inhibition by deprotection by-product; type: cell-based; conditions: concentrations under 1 M

SMILES: CC(=O)C(=O)C(O)CO (stereo not shown) [DPD, 4,5-dihydroxypentane-2,3-dione]
- activity in the V. harveyi autoinducer-bioassay ([1]; deprotection solution with excess borate at pH 7.8, without further purification): active
- activity compared with enzymatically prepared DPD in the V. harveyi bioassay [1]: equal
- activity compared with enzymatically prepared DPD in the V. harveyi bioassay ([1]; listed as synthetic DPD): equal in activity
- change in bioactivity after storage under acidic conditions ([2]; pH 1.5-2, dilute aqueous solution, 16 h at 20° C., DPD at least 30 mM and up to 100 mM): no significant decrease in bioactivity
- effect of acid treatment on autoinducer activity ([2]; synthetic, 100 mM, pH 1.3, 16 h, 20° C., listed as Synthetically-produced DPD): no loss in activity
- effect of acid treatment on autoinducer activity ([2]; synthetic, 100 mM, pH 1.3, 16 h, 20° C., listed as synthetic DPD): did not change the auto inducer activity
- decomposition under acidic conditions by 1H NMR ([3]; 30 mM, 5 h at 20° C., pH 1.5): no decomposition products were observed
- stability at basic pH ([3]; pH>8, unless bound to borate): less stable
- DPD bound to borate [4]: ~10%
- concentration of DPD:borate complex ([4]; from ratio of 11B NMR integrals): ~10 µM

SMILES: CC(=O)C(=O)[C@H](O)CO [Ent-DPD]
- activity relative to DPD (1) in the V. harveyi bioassay [1]: 1%

SMILES: O=C1CCCCC1 [cyclohexanone]
- inhibition of cell growth [5]: does not inhibit cell growth

SMILES: CC(=O)C(=O)C(O)CO (stereo not shown) [enzymatically-produced DPD, 4,5-dihydroxypentane-2,3-dione, reference compound]
- effect of acid treatment on autoinducer activity ([2]; enzymatically produced, 0.53 mM stock, pH 1.5 (H2SO4) or 2 (HCl), up to 16 h): did not affect the autoinducer activity

Reference: US7652172B2, “Expeditious synthesis of DPD” (The Trustees of Princeton University, priority 2004, dated 2010)
